Laboratory results reported in PubChem BioAssay AID248 (DTP/NCI, 2004).
Toxic doses and inconclusive results are not listed. No stated cut-off is given here; in the data, active means T/C of 150% or more; inactive means T/C below 125%.

Tested on: L1210 leukemia ip in BDF1 mice, survival T/C
Assay: NCI In Vivo Anticancer Drug Screen. Data for tumor model L1210 Leukemia (intraperitoneal) in B6D2F1 (BDF1) mice
Details: endpoint: mean survival time, higher = longer survival
In short: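 Ratio derived from survival: compound-dosed mice over vehicle-dosed mice, all bearing a transplantable tumor.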

[1] = dose: 100.0 mg/kg/injection, schedule: Q04DX003 (ip), vehicle: Klucel (hydroxypropylcellulose) (HPC)
[2] = dose: 200.0 mg/kg/injection, schedule: Q04DX003 (ip), vehicle: Klucel (hydroxypropylcellulose) (HPC)
[3] = dose: 400.0 mg/kg/injection, schedule: Q04DX003 (ip), vehicle: Klucel (hydroxypropylcellulose) (HPC)

Measured: T/C

O=C(/C=C/c1ccc(F)cc1)c1ccc(Cl)cc1
inactive: dose: 100.0 mg/kg/injection, schedule: Q01DX009 (ip), vehicle: saline with Tween-80 101 % of control | dose: 100.0 mg/kg/injection, schedule: Q04DX003 (ip), vehicle: saline with Tween-80 96 % of control | dose: 200.0 mg/kg/injection, schedule: Q01DX009 (ip), vehicle: saline with Tween-80 92 % of control | dose: 200.0 mg/kg/injection, schedule: Q04DX003 (ip), vehicle: saline with Tween-80 90 % of control | dose: 400.0 mg/kg/injection, schedule: Q01DX009 (ip), vehicle: saline with Tween-80 103 % of control | dose: 400.0 mg/kg/injection, schedule: Q04DX003 (ip), vehicle: saline with Tween-80 94 % of control

COc1cccc2c1C(=O)c1c(O)c3c(c(O)c1C2=O)CC(O)(C(C)=O)CC3OC1OC(COC(C)=O)C(OC(C)=O)C(OC(C)=O)C1NC(=O)C(F)(F)F (stereo not drawn)
inactive: dose: 0.63 mg/kg/injection, schedule: Q01DX009 (ip), vehicle: Klucel (hydroxypropylcellulose) (HPC) 98 % of control | dose: 1.25 mg/kg/injection, schedule: Q01DX009 (ip), vehicle: Klucel (hydroxypropylcellulose) (HPC) 91 % of control | dose: 2.5 mg/kg/injection, schedule: Q01DX009 (ip), vehicle: Klucel (hydroxypropylcellulose) (HPC) 94 % of control | dose: 5.0 mg/kg/injection, schedule: Q01DX009 (ip), vehicle: Klucel (hydroxypropylcellulose) (HPC) 97 % of control | dose: 10.0 mg/kg/injection, schedule: Q01DX009 (ip), vehicle: Klucel (hydroxypropylcellulose) (HPC) 97 % of control

CC(C)(C)OC(=O)NC(Cc1ccccc1)C(=O)NN (stereo not drawn)
inactive: dose: 100.0 mg/kg/injection, schedule: Q04DX002 (ip), vehicle: Klucel (hydroxypropylcellulose) (HPC) 108 % of control | dose: 200.0 mg/kg/injection, schedule: Q04DX002 (ip), vehicle: Klucel (hydroxypropylcellulose) (HPC) 97 % of control | dose: 400.0 mg/kg/injection, schedule: Q04DX002 (ip), vehicle: Klucel (hydroxypropylcellulose) (HPC) 108 % of control

c1ccc(C([CH2][Hg][CH2]C(c2ccccc2)c2ccccc2)c2ccccc2)cc1
inactive: dose: 100.0 mg/kg/injection, schedule: Q01DX009 (ip), vehicle: saline 101 % of control | [1] 97 % of control | dose: 200.0 mg/kg/injection, schedule: Q01DX009 (ip), vehicle: saline 96 % of control | [2] 93 % of control | dose: 400.0 mg/kg/injection, schedule: Q01DX009 (ip), vehicle: saline 101 % of control | [3] 90 % of control

O=C1OCCN1S(=O)(=O)c1ccc(Cl)c(Cl)c1
inactive: dose: 100.0 mg/kg/injection, schedule: Q01DX009 (ip), vehicle: Klucel (hydroxypropylcellulose) (HPC) 87 % of control | [1] 100 % of control | dose: 200.0 mg/kg/injection, schedule: Q01DX009 (ip), vehicle: Klucel (hydroxypropylcellulose) (HPC) 97 % of control | [2] 105 % of control | dose: 400.0 mg/kg/injection, schedule: Q01DX009 (ip), vehicle: Klucel (hydroxypropylcellulose) (HPC) 90 % of control | [3] 101 % of control

CCCCCCCC/C=C\CCCCCCCCOB(OCCCCCCCC/C=C/CCCCCCCC)OCCCCCCCC/C=C/CCCCCCCC
inactive: dose: 50.0 mg/kg/injection, schedule: Q01DX001 (ip), vehicle: carboxymethylcellulose (CMC) 96 % of control | dose: 100.0 mg/kg/injection, schedule: Q01DX001 (ip), vehicle: carboxymethylcellulose (CMC) 105 % of control | dose: 200.0 mg/kg/injection, schedule: Q01DX001 (ip), vehicle: carboxymethylcellulose (CMC) 105 % of control | dose: 400.0 mg/kg/injection, schedule: Q01DX001 (ip), vehicle: carboxymethylcellulose (CMC) 102 % of control

CCCCN(CCCC)C(=S)[S-].CCCCN(CCCC)C(=S)[S-].[Zn]
inactive: dose: 37.5 mg/kg/injection, schedule: Q01DX009 (ip), vehicle: saline 90 % of control | dose: 75.0 mg/kg/injection, schedule: Q01DX001 (ip), vehicle: saline 88 % of control | dose: 75.0 mg/kg/injection, schedule: Q01DX009 (ip), vehicle: saline 90 % of control | dose: 75.0 mg/kg/injection, schedule: Q04DX003 (ip), vehicle: saline 98 % of control | dose: 150.0 mg/kg/injection, schedule: Q01DX001 (ip), vehicle: saline 93 % of control | dose: 150.0 mg/kg/injection, schedule: Q01DX009 (ip), vehicle: saline 86 % of control | dose: 150.0 mg/kg/injection, schedule: Q04DX003 (ip), vehicle: saline 87 % of control | dose: 300.0 mg/kg/injection, schedule: Q01DX001 (ip), vehicle: saline 89 % of control | dose: 300.0 mg/kg/injection, schedule: Q04DX003 (ip), vehicle: saline 93 % of control

COc1cc2c(cc1OC)/C(=N/N)CCC2
inactive: dose: 50.0 mg/kg/injection, schedule: Q04DX003 (ip), vehicle: Klucel (hydroxypropylcellulose) (HPC) 95 % of control

NC(=O)NC12CC3CC(CC(C3)C1)C2
inactive: dose: 100.0 mg/kg/injection, schedule: Q01DX001 (ip), vehicle: saline 89 % of control | dose: 200.0 mg/kg/injection, schedule: Q01DX001 (ip), vehicle: saline 89 % of control | dose: 400.0 mg/kg/injection, schedule: Q01DX001 (ip), vehicle: saline 101 % of control
